# Laboratory results from publication PMC5074076, “Novel minimal physiologically-based model for the prediction of passive tubular reabsorption and renal excretion clearance” (European Journal of Pharmaceutical Sciences, 2016).
# “And” between values parts separate entries of the source, which are not always exact repeats. Equal entries are not always repeated. Where two headings read alike, the source gives them in different places.
# Key:
# [1] = Observed clearance ratio and fraction reabsorbed (Freab, Freab′) calculated from CLR, fu,p and GFR; settings: for Apparent Freab / Apparent Freab’: calculated from observed CLR, fu,p and GFR; for Freab: observed/apparent, 1 - CLR/(GFR x fu,p), GFR 120 mL/min
# Protocol: The clearance ratio was calculated from clinical data using Eqs. […] For the remaining drugs the fraction reabsorbed (Freab) was calculated using Eq.
# GFR values for healthy subjects may vary as a result of biological as well as inter-individual variation and also the method of measurement. […] Individual GFR values for subjects in clinical trials databases were generally not available.
# In the proposed model, the nephron is represented as five compartments, namely the glomerulus and four tubular regions, as depicted in Fig. 1. The tubular compartments in the model, listed in anatomical order starting from the glomerulus are: the proximal tubule (PT), the loop of Henle (LoH), the distal tubule (DT) and the collecting duct (CD). […] The relationship between Freab′ and Freab is shown in Eq. (11). The predicted overall Freab′ was calculated from the predicted Freab′ in each (i) tubular region (Freab,i′), as shown in Eq. (12).
# [2] = LogD7.4 octanol-buffer, shake-flask (or ACD / BioByte); settings: pH 7.4
# Source text: (§1) The pKa values associated with ionisable centres identified within a given drug were used to calculate the fraction of drug ionised at pH 6.5. Drugs were then classified into groups as follows: drugs with > 50% unionised at pH 6.5 were classified as “Neutral”; drugs with > 50% ionised as mono −/di −/tri-protic acids or bases were classified as “Acid” or “Base”, respectively; “Zwitterions” were classified as drugs with > 50% ionised, with the major ionised species having no net charge; all other drugs were classified as amphoteric. […] LogD6.5 for neutral, amphoteric and zwitterion drugs were assumed to be equal to LogD7.4.
# [3] = Ionisation classification at pH 6.5 from pKa; assay type: physicochemical; settings: predominant species (> 50%) at pH 6.5 from measured or calculated pKa
# Source text: as §1
# [4] = LogD6.5 estimated from LogD7.4 and pKa; settings: octanol/buffer, pH 6.5
# Source text: as §1
# [5] = cited from earlier work; for CLR: healthy adult subjects, overall weighted mean of literature values, absolute (not normalised), ref Supplementary Results Table S2.1; for Overall weighted mean CLR: healthy subjects, plasma and urine data from same subjects, normalised for subject weight and body surface area where necessary; for Overall weighted mean CLR / CLR Observed: ref Table S2.1; for CLR Observed: overall weighted mean of values obtained from a literature survey
# [6] = Caco-2 apparent permeability (Papp), apical to basolateral, pH 6.5-7.4 gradient, efflux inhibitor cocktail; settings: human, Caco-2, pH 6.5
# Protocol: (§2) The assay was performed using the apical to basolateral pH gradient format of pH 6.5 to pH 7.4. […] The efflux transporter inhibitor cocktail was used to minimise the effect of efflux transporters expressed in Caco-2 cells (e.g. P-glycoprotein, BCRP and MRP2) on the estimate of apical to basolateral Papp of substrates for such transporters.
# [7] = pKa, potentiometric AstraZeneca in-house assay (or ACD / BioByte)
# Source text: as §1
# [8] = Papp-Freab′ calibration of Caco-2 Papp with reference drugs and CLR prediction; design: species or system human; settings: reference drugs; calibrated Caco-2 Papp after Hill equation fitting
# Source text: To account for this and to allow the Caco-2 data in the present study to be transferable to other assay formats/laboratories, a Papp–Freab′ calibration method was explored by splitting the available Papp and Freab′ data into ‘reference’ and internal ‘validation’ subsets. […] The calibration approach is proposed as a pragmatic method to account for inter-assay/inter-laboratory differences; herein it is applied to the current dataset only, and not external data as intended for future studies.
# In order to evaluate the application of Papp–Freab′ calibration (Eq. (17)), 11 drugs were selected as reference ‘calibrator’ drugs (Papp,ref) covering a representative range of Freab′ and Papp values (Table 5). The remaining 34 drugs were treated as an internal ‘validation’ set.
# [9] = system: Caco-2 cell monolayers; test: Caco-2 apparent permeability (Papp), apical to basolateral, pH 6.5-7.4 gradient, efflux inhibitor cocktail; settings: Caco-2, apical to basolateral, pH 6.5 to 7.4, efflux inhibitor cocktail, 2 h
# Protocol: as §2
# [10] = pKa (base), measured, potentiometric
# [11] = pKa (acid), measured, potentiometric
Compound,Apparent Freab [1],Apparent Freab’ [1],Freab [1],logD ([2]; octanol/buffer),Ionisation at pH 6.5 [3],logD [4],Papp A→B at 2 h [6] [×10⁻⁶ cm/s],"pKa [7, 10]","pKa [7, 11]",Freab ([1]; listed as isoxicam),"Freab′ ([1]; observed, fraction of equilibrium reached between urine and plasma)",pKa [7],"Papp,ref,calibrated [8]",Papp [9],Freab ([1]; listed as probenecid),CLR [5],Overall weighted mean CLR [5] [mL/min],CLR Observed [5] [mL/min],CLR ([5]; listed as isoxicam) [mL/min],logD [2]
CC(C)NCC(O)COc1ccc(CCOCC2CC2)cc1 (centres unmarked) [Betaxolol],0.081,0.081,0.08,0.63,Base,–,20,9.53,–,–,–,–,–,–,–,49.6 mL/min,49.6,49.64,–,–
CN1CCN(c2cc3c(cc2F)c(=O)c(C(=O)O)cn3-c2ccc(F)cc2)CC1 [Difloxacin],0.939,0.947,0.94,–,Zwitterion,–,74.6,7.39,5.81,–,–,–,–,–,–,4.54 mL/min,4.5,4.54,–,–
CN(C)CCCN1c2ccccc2CCc2ccccc21 [Imipramine],–,–,–,–,–,–,–,9.17,–,–,–,–,–,–,–,–,–,–,–,–
Cc1cc(NC(=O)C2=C(O)c3ccccc3S(=O)(=O)N2C)no1 [Isoxicam],0.995,1.003,1.00,–,Acid,0.7,142,–,3.84,≥ 0.99,1,–,–,–,–,0.02 mL/min,–,0.02,0.022,–
N=C(N)c1ccc(CNC(=O)[C@@H]2CCN2C(=O)[C@H](NCC(=O)O)C2CCCCC2)cc1 [Melagatran],-0.021,-0.021,–,–,Amphoteric,–,0.145,–,2.12,–,–,–,–,–,–,114 mL/min,113.7,113.74,–,–
O=C(NCCN1CCOCC1)c1ccc(Cl)cc1 [Moclobemide],0.943,0.951,0.94,1.6,Base,1.34,64.4,–,–,–,–,–,–,–,–,3.42 mL/min,3.4,3.42,–,–
CN(C)[C@@H]1C(O)=C(C(N)=O)C(=O)[C@@]2(O)C(O)=C3C(=O)c4c(O)cccc4[C@@](C)(O)[C@H]3[C@H](O)[C@@H]12 [Oxytetracycline],0.019,0.019,0.02,–,Zwitterion,–,0.85,–,–,–,–,–,0.01 × 10^− 6 cm/s,0.85 × 10^− 6 cm/s,–,90.8 mL/min,90.8,90.80,–,–
C[C@]12C=CC(=O)C=C1CC[C@@H]1[C@@H]2C(=O)C[C@@]2(C)[C@H]1CC[C@]2(O)C(=O)CO [Prednisone],0.299,0.301,0.30,1.25,Neutral,1.25,37.3,–,–,–,–,–,–,–,–,37.9 mL/min,37.9,37.87,–,–
CC1(C)O[C@@H]2[C@@H](CO[C@@]3(COS(N)(=O)=O)OC(C)(C)O[C@@H]23)O1 [Topiramate],0.856,0.863,0.86,0.6,Neutral,0.61,46.2,–,–,–,–,–,–,–,–,15.1 mL/min,15.1,15.05,–,–
COc1ccc(C(CN(C)C)C2(O)CCCCC2)cc1 (centres unmarked) [Venlafaxine],0.088,0.089,0.09,–,Base,0.05,27.6,–,–,–,–,–,–,–,–,80.0 mL/min,80.0,80.00,–,0.95

# More lines, main results first:
Apparent Freab [1],Apparent Freab’ [1],Freab [1],logD ([2]; octanol/buffer),Ionisation at pH 6.5 [3],logD [4],Papp A→B at 2 h [6] [×10⁻⁶ cm/s],"pKa [7, 10]","pKa [7, 11]",Freab ([1]; listed as isoxicam),"Freab′ ([1]; observed, fraction of equilibrium reached between urine and plasma)",pKa [7],"Papp,ref,calibrated [8]",Papp [9],Freab ([1]; listed as probenecid),Compound,CLR [5],Overall weighted mean CLR [5] [mL/min],CLR Observed [5] [mL/min],CLR ([5]; listed as isoxicam) [mL/min],logD [2]
0.785,0.791,0.78,2.5,Base,1.53,31.8,–,–,–,–,–,–,–,–,CCN(CC)CCCN(c1ccccc1)C1Cc2ccccc2C1 [Aprindine],1.28 mL/min,1.3,1.28,–,–
0.638,0.643,0.64,2.23,Base,1.41,36.5,–,–,–,–,–,–,–,–,CN(C)CCC=C1c2ccccc2COc2ccccc21 [Doxepin],9.75 mL/min,9.8,9.75,–,–
0.350,0.353,0.35,0.5,Zwitterion,0.5,110,–,–,–,–,–,–,–,–,Cc1c(F)c(N2CCNC(C)C2)cc2c1c(=O)c(C(=O)O)cn2C1CC1 (centres unmarked) [Grepafloxacin],47.6 mL/min,47.6,47.60,–,–
0.623,0.628,0.62,1.29,Acid,2.19,44,–,3.91,–,–,–,–,–,–,CCCCC1=NC2(CCCC2)C(=O)N1Cc1ccc(-c2ccccc2-c2nnn[nH]2)cc1 [Irbesartan],2.37 mL/min,2.4,2.37,–,–
-0.050,-0.050,–,–,Base,–,17,–,–,–,–,9.4,–,–,–,COCCc1ccc(OCC(O)CNC(C)C)cc1 (centres unmarked) [Metoprolol],110 mL/min,109.6,109.58,–,–
0.955,0.963,0.96,–,Acid,0.76,84.5,–,3.36,–,–,–,–,–,0.955,CCCN(CCC)S(=O)(=O)c1ccc(C(=O)O)cc1 [Probenecid],0.50 mL/min,0.5,0.50,–,–
0.084,0.085,0.08,–,Neutral,–,1.55,–,–,–,–,–,0.03 × 10^− 6 cm/s,–,–,NC(=O)c1ncn([C@@H]2O[C@H](CO)[C@@H](O)[C@H]2O)n1 [Ribavirin],109.9 mL/min and 110 mL/min,109.9,109.94,–,–
0.547,0.552,0.55,–,Base,1.27,32.3,–,–,–,–,–,–,–,–,CCCN1CCCC[C@H]1C(=O)Nc1c(C)cccc1C [Ropivacaine],2.73 mL/min,2.7,2.73,–,2.1
